“And” between values parts separate entries of the source, which are not always exact repeats. Identical values can stand only once.
What was measured:
[1] = target: BoNT/A LC (Clostridium botulinum, UniProt P0DPI0); type: biochemical
[2] = tested on: BoNT/A-mediated cleavage of SNAP-25 in hiPSC-derived neurons; type: cell-based, human; details: for EC50: read-out: EC50, protection of BoNT/A-intoxicated neurons (SNAP-25 cleavage)
[3] = tested on: BoNT/A; details: mouse
[4] = mouse, in vivo, sc, 1 mg/kg

BoNT/A LC, sequence (P0DPI0 2-448 limits assumed): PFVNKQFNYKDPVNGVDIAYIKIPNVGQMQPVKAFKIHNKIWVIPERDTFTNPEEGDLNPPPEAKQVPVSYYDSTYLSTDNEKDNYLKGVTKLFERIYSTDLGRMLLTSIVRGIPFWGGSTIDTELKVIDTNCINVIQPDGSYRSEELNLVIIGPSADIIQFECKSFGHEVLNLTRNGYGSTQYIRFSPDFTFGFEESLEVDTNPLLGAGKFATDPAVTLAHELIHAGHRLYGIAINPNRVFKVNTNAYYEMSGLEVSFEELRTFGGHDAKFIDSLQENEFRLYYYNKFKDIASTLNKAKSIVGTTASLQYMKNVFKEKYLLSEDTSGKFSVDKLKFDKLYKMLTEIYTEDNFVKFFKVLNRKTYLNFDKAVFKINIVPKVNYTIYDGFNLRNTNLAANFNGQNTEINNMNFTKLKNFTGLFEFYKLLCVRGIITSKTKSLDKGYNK

Question: With O=C1O[C@H]([C@@H](O)CO)C([O-])=C1O.[Na+] [ASC, Sodium ascorbate, reference compound] as the molecule, how does the “effect on enzyme activity” value [1] read?
Answer: no effect

Question: For c1ccc(-c2ccccn2)nc1 [BIPY, 2,2′-bipyridine], which “result in cell-based BoNT/A assay” value [2] is on record?
Answer: promising results

Question: Which “delay between +complex and control curves of SNAP-25 cleavage versus time” value [2] does the source give for CNC(=S)NN=CC=NNC(=S)NC.[Cu+2] [Cu(GTSM), copper (II) glyoxal-bis(4-methylthiosemicarbazone)] here?
Answer: less than half hour delay

Question: And the “effect of additives NAC, ASC or BSO on complex inhibition of BoNT/A” value [2]?
Answer: no observable effect

Question: And the “effect on SNAP-25 cleavage” value [2]?
Answer: able to mitigate SNAP-25 cleavage

Question: What about the EC50 [2] of the same molecule?
Answer: ~1 µM

Question: What about the “in vivo efficacy against BoNT/A” value [3] of the same molecule?
Answer: efficacy against BoNT/A was established

Question: And the “efficacy after BoNT/A challenge” value ([3]; in vivo)?
Answer: statistically significant efficacy was not achieved

Question: And the time to death ([3]; in vivo)?
Answer: significant increase

Question: And the “time to death post-toxin exposure” value ([3]; in vivo, sc)?
Answer: marked increase

Question: What about the “survival of mice treated with complex only without toxin” value [4] of the same molecule?
Answer: complete survival

Question: Which “effect on SNAP-25 cleavage” value [2] does the source give for COCCN(CCOC)C(=S)[S-].COCCN(CCOC)C(=S)[S-].[Cu+2] [Cu(MEDTC)2, copper (II) bis(2-methoxyethyl)dithiocarbamate] here?
Answer: able to mitigate SNAP-25 cleavage

Question: What about the EC50 [2] of the same molecule?
Answer: ~1 µM

Question: What about the “in vivo efficacy against BoNT/A” value [3] of the same molecule?
Answer: efficacy against BoNT/A was established

Question: And the time to death ([3]; in vivo)?
Answer: significant increase

Question: What about the “survival of mice treated with complex only without toxin” value [4] of the same molecule?
Answer: complete survival

Question: For Oc1c(Cl)cc(Cl)c2cccnc12 [DCOQ, 5,7-dichloroquinolin-8-ol], which “result in cell-based BoNT/A assay” value [2] is on record?
Answer: promising results

Question: With CuCl2 [Cu (II)] as the molecule, how does the Ki [1] read?
Answer: 1.56 µM and ~1 µM

Question: And the enzyme activity [1]?
Answer: < 1%

Question: And the inhibition mechanism [1]?
Answer: noncompetitive inhibition

Question: What about the “inhibitory activity in metal salt screen” value [1] of the same molecule?
Answer: significant inhibitory activity

Question: What about the “reversibility of inhibitory effect on Vmax” value [1] of the same molecule?
Answer: reversible
